Measurements as given in US20040097433A1, “Chroman derivatives for the reduction of inflammation symptoms” (priority 2002, published 2004).
pEC50: −log10 of the molar value.

Key:
[1] = test system: CRP; assay: Human Hep3B cells CRP assay; type: cell-based; settings: for reduction of CRP levels (in words): CRP assay of Example 1A; for pEC50: Homo sapiens, 72 h, Hep3B cells stimulated with IL-1β, IL-6 and dexamethasone, three days, CRP ELISA on supernatant, normalized to cell count, read-out: EC50 for reducing CRP levels
Protocol: In studies carried out in support of the present invention, a combination of Interleukin-1β, IL-6, and dexamethasone is used to induce CRP production, and counter-agents are tested for their ability to reduce this production in cultured liver cells, as detailed in Example 1A. The assay is performed on cells grown in 96-well format allowing high throughput screening of compounds. As described herein, chroman derivatives were able to reduce CRP levels in an assay such as the one described in Example 1A.
A. Human Hep3B Cells—CRP assay. Hep3B Cell Line is obtained from the American Type Culture Collection (ATCC Catalog No. HB-8064). The Hep3B cell line was derived from liver tissue of […]. The cells are epithelial in morphology and produce tumors in nude mice. The cells produce α-fetoprotein, hepatitis B surface antigen, albumin, α-2-macroglobulin, α-1-antitrypsin, transferrin, plasminogen, complement C3 and β-lipoprotein (Knowles B B, et al., Science, 1980, 209:497499). This cell line has been widely used to study hepatocyte cytokine and acute phase protein release (e.g., Damtew B, et al., 1993, J. Immunol. 150:4001-4007).
HEP3B cells are grown in Minimum Essential Medium (MEM; GIBCO) supplemented with 10% Fetal Bovine Serum (FBS; Hyclone), 1× Penicillin/Streptomycin (GIBCO, Cat#. 15140-122) and 0.1 mM non-essential amino acids (GIBCO, Catalog No. 11140-050). Cells are thawed and transferred to warm medium according to standard methods known in the art.
Cells are incubated in flasks at 37° C. with 5% CO2 in an air atmosphere incubator. HEP3B growth media is changed every 2 days until the cells reach 70-80% confluence (approx. 3-4 days). For assay, the cells are transferred to 96-well plates, seeded at 5000 cells per well in culture media, and left to grow for 7 days in a 37° C. incubator (air supplemented with 5% CO2). Media is replaced daily until assay. […]
100 μl HRP-conjugated rabbit anti-human CRP (DAKO) diluted 1:500 (in CRP wash buffer) is added to each well, followed by incubation for 30 minutes at 37° C. […] Finally, 50 μl of 1M H2SO4 is added to each well and absorbance at 450 nm is immediately measured in a microtiter spectrophotometer.
CRP measured as above is normalized to cell count per well, using a cell viability assay, such as the Cell Tracker Green assay. […] Plates are immediately read using a Fluoroskan® flourometer with a 485 excitation/538 emission filter pair.

[2] = test system: ELAM (E-selectin); assay: Cell-ELAM (E-selectin) assay; type: cell-based; settings: Endothelial cell, 6 h, endothelial cells stimulated with LPS and IL-1β for 6 hours; E-selectin antibody ELISA; read-out: EC50 for reducing the expression of ELAM
Source text: Another useful cell screening assay, exemplified herein in Example 1B, is the E-selectin (ELAM) production assay, which measures activity of test compounds in reducing expression of ELAM in activated endothelial cells. Briefly, endothelial cells are activated by adding known activators such as lipopolysaccharide, TNF-α, or IL-1β, alone or in some combination. Activated cells produce ELAM, which can be measured using, for example, an E-selectin monoclonal antibody-based ELISA assay. In studies carried out in support of the present invention, ELAM production was decreased. As described herein, chroman derivatives were able to reduce ELAM production in an assay such as the one described in Example 1B.
B. Cell-ELAM Assay. Endothelial-Leukocyte Adhesion Molecule (ELAM), also known as E-selectin, is expressed on the surface of endothelial cells. In this assay, lipopolysaccharide (LPS) and IL-1β are used to stimulate the expression of ELAM; test agents are tested for their abilities to reduce this expression, in accordance with studies showing that reduction of leukocyte adhesion to endothelial cell surface is associated with decreased cellular damage (e.g., Takada, M., Et al., Transplantation 64: 1520-25, 1997; Steinberg, J. B., et al., J. Heart Lung Trans. 13:306-313, 1994).
Endothelial cells may be selected from any of a number of sources and cultured according to methods known in the art; including, for example, coronary artery endothelial cells, human brain microvascular endothelial cells (HBMEC; Hess, D. C., et al., Neurosci. Lett. 213(1): 37-40,1996), or lung endothelial cells. Cells are conveniently cultured in 96-well plates. […] Wells are allowed to develop for 35 minutes, before measurement at 402 nm in a Fluoroskan® Reader with shake program for 10 seconds. Positive results are recorded as a decrease in ELAM concentration in tested wells, as compared to control wells.

[3] = test system: CD-1 mice; assay: Arachidonic acid ear inflammation model; type: in vivo, mouse; settings: topical to left ear, 20 μL in 70% ethanol/30% propylene glycol; ear punch weight difference one hour after treatment
Protocol: This assay measures the ability of test compounds to prevent or reduce inflammation secondary to oxazolone or arachidonic acid.
A. Arachidonic acid. Albino male CD-1 mice, 7-9 weeks old were used in this test. A 20% (w/v) arachidonic acid solution in acetone was prepared. Twenty microliters of the arachidonic acid solution was applied to the dorsal left ear of the mouse. Immediately thereafter, test compounds (20 μL in 70% ethanol/30% propylene glycol) were applied to the left ear. The untreated right ears served as control. Mice are sacrificed by CO2 inhalation, one hour after treatment. The left and right ears were removed and 7 mm punch biopsies taken from each. The punch biopsies were weighed, and the differences calculated.

Row | pEC50 [2] | Compound | reduction of CRP levels (in words) [1] | pEC50 [1] | protection in arachidonic acid ear inflammation assay [3]
1 |  | Cc1c(O)cc2c(c1C)OC(C)(CCC(=O)O)CC2 (stereo not drawn) [3-(6-hydroxy-2,7,8-trimethyl-chroman-2-yl)-propionic acid] | effective at reducing CRP levels | 4.22 to 4.40 | 
2 | 4.00 to 5.00 | Cc1c(C)c2c(c(C)c1O)CCC(C)(C(=O)NCC1C3CC4CC(C3)CC1C4)O2 (stereo not drawn) [6-Hydroxy-2,5,7,8-tetramethyl-chroman-2-carboxylic acid (adamantan-2-ylmethyl)-amide] |  |  | 
3 |  | COC(=O)CCC1(C)CCc2cc(O)c(C)c(C)c2O1 (stereo not drawn) [3-(6-hydroxy-2,7,8-trimethyl-chroman-2-yl)propionic acid methyl ester] | effective at reducing CRP levels | 4.52 to 5.00 | 
4 | 4.00 to 5.00 | COC(=O)CCC1(C)CCc2c(Br)c(O)c(C)c(C)c2O1 (stereo not drawn) [3-(5-Bromo-6-hydroxy-2,7,8-trimethyl-chroman-2-yl)-propionic acid methyl ester] |  |  | about 40%
5 | 4.00 to 5.00 | CC1(CCC(=O)O)CCc2ccc(O)c(O)c2O1 (stereo not drawn) [3-(7,8-Dihydroxy-2-methyl-chroman-2-yl)-propionic acid] |  |  | about 40%
